Measurements reported in PMC4757768, “Mechanisms of amphetamine action illuminated through optical monitoring of dopamine synaptic vesicles in Drosophila brain” (Nature Communications, 2016).

Biological target: T1, VMAT2 (Rattus norvegicus, UniProt Q01827)
T1 construct: gene Slc18a2
Test: inhibition of [3H]dopamine uptake in digitonin-treated HEK293 cells stably expressing rat VMAT2; binding Ki […] at mammalian VMAT2 also reported
Format: cell-based

T1 sequence (Q01827 whole entry): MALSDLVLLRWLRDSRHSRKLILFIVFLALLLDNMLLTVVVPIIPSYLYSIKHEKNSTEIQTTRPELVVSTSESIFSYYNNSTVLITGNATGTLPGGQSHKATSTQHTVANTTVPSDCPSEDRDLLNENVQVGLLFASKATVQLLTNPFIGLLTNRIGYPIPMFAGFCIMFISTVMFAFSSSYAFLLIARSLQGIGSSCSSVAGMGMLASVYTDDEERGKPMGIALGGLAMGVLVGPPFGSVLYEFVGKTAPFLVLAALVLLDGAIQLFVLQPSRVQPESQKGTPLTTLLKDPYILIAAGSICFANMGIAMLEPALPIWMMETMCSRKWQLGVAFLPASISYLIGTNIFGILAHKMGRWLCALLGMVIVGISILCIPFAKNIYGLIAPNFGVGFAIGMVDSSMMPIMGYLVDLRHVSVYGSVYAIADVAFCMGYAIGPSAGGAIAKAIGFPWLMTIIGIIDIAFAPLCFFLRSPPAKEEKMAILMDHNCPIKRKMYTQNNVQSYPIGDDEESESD

COc1cc2c(cc1O)[C@H]1CC(=O)[C@H](CC(C)C)CN1CC2 [(+)-CYY477]
IC50: 26 nM
